Test results reported in PubChem BioAssay (NCI).
Values joined by “and” are separate entries in the source; they are usually repeats but may differ in a detail not shown here. Equal values may be shown once.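 How tested: cells in 96-well plates exposed to compound for 48 hours at five concentrations. At the GI50, growth is halved. TGI: total growth inhibition.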

Test system: M14 melanoma
Experiment: NCI tumour cell line growth inhibition, 48 h

Row | Compound | GI50 | TGI
1 | C#Cc1cccc(Nc2ncnc3cc(OC)c(OCCCCCCC(=O)NO)cc23)c1 | 0.21 µM | 1.99 µM
2 | CSc1nc2c(nc(C)c(=O)n2C2OCC(OC(C)=O)C(OC(C)=O)C2OC(C)=O)c(=O)[nH]1 (stereo not drawn) | – | > 100 µM
3 | O=c1n(CC2CO2)c(=O)n(CC2CO2)c(=O)n1CC1CO1 (stereo not drawn) | 13.2 µM and 6.77 µM | 57.3 µM and > 100 µM
4 | Cc1ccc(C(SCC(N)C(=O)O)(c2ccccc2)c2ccc(C)cc2)cc1 (stereo not drawn) | 0.0316 µM | 0.147 µM
5 | COc1cc(Nc2cn[nH]c2-c2ccc(Cl)cc2)cc(OC)c1OC | 2.5 µM | 9.41 µM
6 | O=C(c1ccccc1)c1cc(Cl)ccc1OCCCCN1CCN(CCCCOc2ccc(Cl)cc2C(=O)c2ccccc2)CC1 | 2.01 µM | 4.14 µM
7 | O=C1NC(=Nc2ccccc2)S/C1=C\c1ccc2ncccc2c1 | > 25 µM | > 25 µM
8 | Oc1ccc(Cl)cc1Cc1cc(Cl)cc(Cl)c1O | 4.61 µM | 23 µM
9 | COc1ccc(N2C(=O)C(c3ccccc3)(c3ccccc3)C23C(=O)N(C)c2ccccc23)cc1 (stereo not drawn) | > 100 µM | > 100 µM
10 | COc1ccc(C2S/C(=C\c3ccccc3O)C(=O)N2NC(=O)Cc2ccccc2)cc1 (stereo not drawn) | – | > 100 µM
11 | CC1OC(n2cc(F)c(=O)[nH]c2=O)C=CC1O (stereo not drawn) | – | > 100 µM
12 | C/C(=C\CCc1ccoc1)CC/C=C(\C)CCCC1=CC(=O)OC1 | 7.28 µM | 45 µM
13 | C=C(C=O)[C@@H]1C2OC(=O)C(=C)[C@@H]2CC(O)[C@@]1(C)CC (stereo partly drawn) | – | 19.1 µM
14 | C=C(CCCCC)CN1CCCC1[C@@](C)(O)CC(=O)OCC (stereo partly drawn) | – | > 100 µM
15 | O=c1c2ccccc2[se]n1-c1cccnc1 | – | 83.7 µM
16 | NC(=NCCCOc1ccc(Cl)cc1)Nc1ccc(C(F)(F)F)cc1 | 1.69 µM | 3.46 µM

Test system: 786-0 renal
Experiment: NCI tumour cell line growth inhibition, 48 h

Row | Compound | GI50 | TGI
17 | C#Cc1cccc(Nc2ncnc3cc(OC)c(OCCCCCCC(=O)NO)cc23)c1 | 0.448 µM | 4.68 µM
18 | CSc1nc2c(nc(C)c(=O)n2C2OCC(OC(C)=O)C(OC(C)=O)C2OC(C)=O)c(=O)[nH]1 (stereo not drawn) | – | > 100 µM
19 | O=c1n(CC2CO2)c(=O)n(CC2CO2)c(=O)n1CC1CO1 (stereo not drawn) | 8.38 µM and 4.15 µM | 24.2 µM and 84.8 µM and > 100 µM
20 | Cc1ccc(C(SCC(N)C(=O)O)(c2ccccc2)c2ccc(C)cc2)cc1 (stereo not drawn) | 2.21 µM | 24.4 µM
21 | COc1cc(Nc2cn[nH]c2-c2ccc(Cl)cc2)cc(OC)c1OC | 6.8 µM | 36.2 µM
22 | O=C(c1ccccc1)c1cc(Cl)ccc1OCCCCN1CCN(CCCCOc2ccc(Cl)cc2C(=O)c2ccccc2)CC1 | 1.96 µM | 3.7 µM
23 | O=C1NC(=Nc2ccccc2)S/C1=C\c1ccc2ncccc2c1 | > 25 µM | > 25 µM
24 | Oc1ccc(Cl)cc1Cc1cc(Cl)cc(Cl)c1O | 8.98 µM | 30.1 µM
25 | COc1ccc(N2C(=O)C(c3ccccc3)(c3ccccc3)C23C(=O)N(C)c2ccccc23)cc1 (stereo not drawn) | > 100 µM | > 100 µM
26 | COc1ccc(C2S/C(=C\c3ccccc3O)C(=O)N2NC(=O)Cc2ccccc2)cc1 (stereo not drawn) | – | > 100 µM
27 | CC1OC(n2cc(F)c(=O)[nH]c2=O)C=CC1O (stereo not drawn) | – | > 100 µM
28 | C/C(=C\CCc1ccoc1)CC/C=C(\C)CCCC1=CC(=O)OC1 | 9.16 µM | 42.2 µM
29 | C=C(C=O)[C@@H]1C2OC(=O)C(=C)[C@@H]2CC(O)[C@@]1(C)CC (stereo partly drawn) | – | 10.2 µM
30 | C=C(CCCCC)CN1CCCC1[C@@](C)(O)CC(=O)OCC (stereo partly drawn) | – | > 100 µM
31 | O=c1c2ccccc2[se]n1-c1cccnc1 | – | 87.4 µM
32 | NC(=NCCCOc1ccc(Cl)cc1)Nc1ccc(C(F)(F)F)cc1 | 1.65 µM | 4.32 µM

Test system: RXF 393 renal
Experiment: NCI tumour cell line growth inhibition, 48 h

Row | Compound | GI50 [µM] | TGI
33 | C#Cc1cccc(Nc2ncnc3cc(OC)c(OCCCCCCC(=O)NO)cc23)c1 | 0.0752 | 0.367 µM
34 | CSc1nc2c(nc(C)c(=O)n2C2OCC(OC(C)=O)C(OC(C)=O)C2OC(C)=O)c(=O)[nH]1 (stereo not drawn) | – | > 100 µM
35 | O=c1n(CC2CO2)c(=O)n(CC2CO2)c(=O)n1CC1CO1 (stereo not drawn) | 4.01 | 109 µM and 23.8 µM
36 | Cc1ccc(C(SCC(N)C(=O)O)(c2ccccc2)c2ccc(C)cc2)cc1 (stereo not drawn) | 0.0957 | 3.52 µM
37 | COc1cc(Nc2cn[nH]c2-c2ccc(Cl)cc2)cc(OC)c1OC | 10.4 | > 64.1 µM
38 | O=C(c1ccccc1)c1cc(Cl)ccc1OCCCCN1CCN(CCCCOc2ccc(Cl)cc2C(=O)c2ccccc2)CC1 | 2.53 | 5.08 µM
39 | O=C1NC(=Nc2ccccc2)S/C1=C\c1ccc2ncccc2c1 | > 25 | > 25 µM
40 | Oc1ccc(Cl)cc1Cc1cc(Cl)cc(Cl)c1O | 2.54 | 8.54 µM
41 | COc1ccc(N2C(=O)C(c3ccccc3)(c3ccccc3)C23C(=O)N(C)c2ccccc23)cc1 (stereo not drawn) | > 100 | > 100 µM
42 | COc1ccc(C2S/C(=C\c3ccccc3O)C(=O)N2NC(=O)Cc2ccccc2)cc1 (stereo not drawn) | – | > 100 µM
43 | CC1OC(n2cc(F)c(=O)[nH]c2=O)C=CC1O (stereo not drawn) | – | > 100 µM
44 | C/C(=C\CCc1ccoc1)CC/C=C(\C)CCCC1=CC(=O)OC1 | 3.17 | 15.7 µM
45 | C=C(C=O)[C@@H]1C2OC(=O)C(=C)[C@@H]2CC(O)[C@@]1(C)CC (stereo partly drawn) | – | 10.3 µM
46 | C=C(CCCCC)CN1CCCC1[C@@](C)(O)CC(=O)OCC (stereo partly drawn) | – | > 100 µM
47 | O=c1c2ccccc2[se]n1-c1cccnc1 | – | 69.2 µM
48 | NC(=NCCCOc1ccc(Cl)cc1)Nc1ccc(C(F)(F)F)cc1 | 1.42 | 5.52 µM

Test system: CAKI-1 renal
Experiment: NCI tumour cell line growth inhibition, 48 h

Row | Compound | GI50 [µM] | TGI
49 | C#Cc1cccc(Nc2ncnc3cc(OC)c(OCCCCCCC(=O)NO)cc23)c1 | 0.261 | 3.04 µM
50 | CSc1nc2c(nc(C)c(=O)n2C2OCC(OC(C)=O)C(OC(C)=O)C2OC(C)=O)c(=O)[nH]1 (stereo not drawn) | – | > 100 µM
51 | O=c1n(CC2CO2)c(=O)n(CC2CO2)c(=O)n1CC1CO1 (stereo not drawn) | 0.81 | 52.1 µM and 64.9 µM
52 | Cc1ccc(C(SCC(N)C(=O)O)(c2ccccc2)c2ccc(C)cc2)cc1 (stereo not drawn) | 0.402 | 20.1 µM
53 | COc1cc(Nc2cn[nH]c2-c2ccc(Cl)cc2)cc(OC)c1OC | 2.34 | 26.2 µM
54 | O=C(c1ccccc1)c1cc(Cl)ccc1OCCCCN1CCN(CCCCOc2ccc(Cl)cc2C(=O)c2ccccc2)CC1 | 4.08 | 15.1 µM
55 | O=C1NC(=Nc2ccccc2)S/C1=C\c1ccc2ncccc2c1 | > 25 | > 25 µM
56 | Oc1ccc(Cl)cc1Cc1cc(Cl)cc(Cl)c1O | 7.86 | 35.9 µM
57 | COc1ccc(N2C(=O)C(c3ccccc3)(c3ccccc3)C23C(=O)N(C)c2ccccc23)cc1 (stereo not drawn) | > 100 | > 100 µM
58 | COc1ccc(C2S/C(=C\c3ccccc3O)C(=O)N2NC(=O)Cc2ccccc2)cc1 (stereo not drawn) | – | > 100 µM
59 | CC1OC(n2cc(F)c(=O)[nH]c2=O)C=CC1O (stereo not drawn) | – | > 100 µM
60 | C/C(=C\CCc1ccoc1)CC/C=C(\C)CCCC1=CC(=O)OC1 | 5.01 | > 100 µM
61 | C=C(C=O)[C@@H]1C2OC(=O)C(=C)[C@@H]2CC(O)[C@@]1(C)CC (stereo partly drawn) | – | 24 µM
62 | C=C(CCCCC)CN1CCCC1[C@@](C)(O)CC(=O)OCC (stereo partly drawn) | – | > 100 µM
63 | O=c1c2ccccc2[se]n1-c1cccnc1 | – | > 100 µM
64 | NC(=NCCCOc1ccc(Cl)cc1)Nc1ccc(C(F)(F)F)cc1 | 2.48 | 9.03 µM

Test system: OVCAR-8 ovarian
Experiment: NCI tumour cell line growth inhibition, 48 h

Row | Compound | GI50 | TGI
65 | C#Cc1cccc(Nc2ncnc3cc(OC)c(OCCCCCCC(=O)NO)cc23)c1 | 0.117 µM | 4.43 µM
66 | CSc1nc2c(nc(C)c(=O)n2C2OCC(OC(C)=O)C(OC(C)=O)C2OC(C)=O)c(=O)[nH]1 (stereo not drawn) | – | > 100 µM
67 | O=c1n(CC2CO2)c(=O)n(CC2CO2)c(=O)n1CC1CO1 (stereo not drawn) | 25.3 µM and 12.9 µM | 148 µM and > 100 µM
68 | Cc1ccc(C(SCC(N)C(=O)O)(c2ccccc2)c2ccc(C)cc2)cc1 (stereo not drawn) | 0.433 µM | 44.2 µM
69 | COc1cc(Nc2cn[nH]c2-c2ccc(Cl)cc2)cc(OC)c1OC | 14.3 µM | > 100 µM
70 | O=C(c1ccccc1)c1cc(Cl)ccc1OCCCCN1CCN(CCCCOc2ccc(Cl)cc2C(=O)c2ccccc2)CC1 | 1.82 µM | 3.37 µM
71 | O=C1NC(=Nc2ccccc2)S/C1=C\c1ccc2ncccc2c1 | > 25 µM | > 25 µM
72 | Oc1ccc(Cl)cc1Cc1cc(Cl)cc(Cl)c1O | 12.8 µM | 76.4 µM
73 | COc1ccc(N2C(=O)C(c3ccccc3)(c3ccccc3)C23C(=O)N(C)c2ccccc23)cc1 (stereo not drawn) | > 100 µM | > 100 µM
74 | COc1ccc(C2S/C(=C\c3ccccc3O)C(=O)N2NC(=O)Cc2ccccc2)cc1 (stereo not drawn) | – | > 100 µM
75 | CC1OC(n2cc(F)c(=O)[nH]c2=O)C=CC1O (stereo not drawn) | – | > 100 µM
76 | C/C(=C\CCc1ccoc1)CC/C=C(\C)CCCC1=CC(=O)OC1 | 5.11 µM | 29.8 µM
77 | C=C(C=O)[C@@H]1C2OC(=O)C(=C)[C@@H]2CC(O)[C@@]1(C)CC (stereo partly drawn) | – | 20.4 µM
78 | C=C(CCCCC)CN1CCCC1[C@@](C)(O)CC(=O)OCC (stereo partly drawn) | – | > 100 µM
79 | O=c1c2ccccc2[se]n1-c1cccnc1 | – | 69.5 µM
